Results as given in PubChem BioAssay AID2060614 (Molecular Pharmacology Branch, DTP, NCI, 2025).

Test system: 598228-144-R-J1-PDC complex spheroids, viability
Assay: Anticancer human tumor 598228-144-R-J1-PDC patient-derived serous endometrial adenocarcinoma cell line growth inhibition [CLK]
Conditions: for IC50: curve of first compound; for viability, T/C: stronger effect = lower value
Outline: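 Multi-cell-type spheroids combined patient-derived tumor cells with HUVEC endothelial cells and human mesenchymal stem cells. Paired agents were dosed in half-log steps down from about clinical Cmax, or from 10 microM where Cmax was unknown.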
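Also: spheroids exposed to compounds for seven days before readout.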
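For viability, T/C in this document: 100% = DMSO vehicle control wells.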

CC(C)CC(NC(=O)C(Cc1ccccc1)NC(=O)c1cnccn1)B(O)O (configuration not stated) + CNC(=O)c1ccc(Nc2nc(OC3CCCC3)c3c(-c4ccc5nc(C)oc5c4)c[nH]c3n2)c(OC)c1
IC50 (second compound 0.0316 µM): 4.68 nM | IC50 (second compound 0.1 µM): 5.05 nM | IC50 (second compound 0.316 µM): 3.47 nM | IC50 (second compound 1 µM): 2.18 nM | IC50 (second compound 3.16 µM): 2.08 nM | IC50 (second compound 10 µM): 1.96 nM | viability, T/C (second compound 0.0316 µM, first compound 0.000949 µM): 111% | viability, T/C (second compound 0.0316 µM, first compound 0.003 µM): 79.8% | viability, T/C (second compound 0.0316 µM, first compound 0.00949 µM): 2.81% | viability, T/C (second compound 0.0316 µM, first compound 0.03 µM): 0.55% | viability, T/C (second compound 0.0316 µM, first compound 0.0949 µM): 0.7% | viability, T/C (second compound 0.0316 µM, first compound 0.3 µM): 0.37% | viability, T/C (second compound 0.1 µM, first compound 0.000949 µM): 127% | viability, T/C (second compound 0.1 µM, first compound 0.003 µM): 88.8% | viability, T/C (second compound 0.1 µM, first compound 0.00949 µM): 3.14% | viability, T/C (second compound 0.1 µM, first compound 0.03 µM): 0.58% | viability, T/C (second compound 0.1 µM, first compound 0.0949 µM): 0.44% | viability, T/C (second compound 0.1 µM, first compound 0.3 µM): 0.49% | viability, T/C (second compound 0.316 µM, first compound 0.000949 µM): 116% | viability, T/C (second compound 0.316 µM, first compound 0.003 µM): 56.7% | viability, T/C (second compound 0.316 µM, first compound 0.00949 µM): 3.51% | viability, T/C (second compound 0.316 µM, first compound 0.03 µM): 0.83% | viability, T/C (second compound 0.316 µM, first compound 0.0949 µM): 0.51% | viability, T/C (second compound 0.316 µM, first compound 0.3 µM): 0.91% | viability, T/C (second compound 1 µM, first compound 0.000949 µM): 128% | viability, T/C (second compound 1 µM, first compound 0.003 µM): 19.7% | viability, T/C (second compound 1 µM, first compound 0.00949 µM): 1.31% | viability, T/C (second compound 1 µM, first compound 0.03 µM): 0.56% | viability, T/C (second compound 1 µM, first compound 0.0949 µM): 0.77% | viability, T/C (second compound 1 µM, first compound 0.3 µM): 1.17% | viability, T/C (second compound 3.16 µM, first compound 0.000949 µM): 128% | viability, T/C (second compound 3.16 µM, first compound 0.003 µM): 13.9% | viability, T/C (second compound 3.16 µM, first compound 0.00949 µM): 0.9% | viability, T/C (second compound 3.16 µM, first compound 0.03 µM): 0.44% | viability, T/C (second compound 3.16 µM, first compound 0.0949 µM): 2.9% | viability, T/C (second compound 3.16 µM, first compound 0.3 µM): 1.57% | viability, T/C (second compound 10 µM, first compound 0.000949 µM): 115% | viability, T/C (second compound 10 µM, first compound 0.003 µM): 11.9% | viability, T/C (second compound 10 µM, first compound 0.00949 µM): 2.24% | viability, T/C (second compound 10 µM, first compound 0.03 µM): 1.62% | viability, T/C (second compound 10 µM, first compound 0.0949 µM): 0.46% | viability, T/C (second compound 10 µM, first compound 0.3 µM): 2.11%
